Results as given in patent publication US20240158810A1, “COMPOSITIONS AND METHODS FOR AMELIORATING ANTERODORSAL THALAMUS HYPEREXCITABILITY” (The Broad Institute, Inc., priority 2021, published 2024).

Key:
PTCHD1 KD mice = assay: Contextual fear conditioning long-term memory recall test in PTCHD1 KD mice; format: in vivo, mouse; settings: PTCHD1 KD mice with hM4Di in AD; low dose of C21 (0.6 mg kg^-1 IP) before CFC training
From the text: (§1) The inventors hypothesized that the increased excitability of AD neurons in KD mice may prevent synaptic strengthening during CFC training, which is necessary for efficient encoding. Specifically, in control mice the excitability of AD neurons would increase during training, which leads to strengthening of the AD→RSC circuit, but in KD mice due to the increased excitability of AD neurons before training there will not be the important training-induced increase in excitability and corresponding synaptic strengthening. By recording from AD neurons before and after CFC training in control and KD groups, the inventors obtained experimental evidence to support this idea (FIG. 14G). Without intending to be bound by theory, these findings support a correlation between neuronal hyperexcitability and impairments in long-term potentiation (Speca et al., 2014: Gruter et al., 2015). The inventors next developed a dose-dependent chemogenetic approach to normalize the excitability of AD neurons in KD mice (FIG. 6D).
Chemogenetic and optogenetic experiments. For chemogenetic (i.e., hM4Di or hM3Dq) neuronal activity manipulation experiments, we used the second-generation agonist known as compound 21 (C21). […]
Contextual fear conditioning. […] Since optogenetic manipulations (i.e., optic fibers) interfered with automated motion detection, freezing behavior was manually quantified for all experiments.

[1] = test system: AD neurons of PTCHD1 KD mice; assay: AD neuronal excitability rescue ex vivo in PTCHD1 KD mice (chemogenetic normalization); set-up: species or system mouse; settings: PTCHD1 KD mice with hM4Di in AD; low dose of C21 (0.6 mg kg^-1 IP), 1 hr before slice preparation
From the text: as §1
(§2) Chemogenetic and optogenetic experiments. For chemogenetic (i.e., hM4Di or hM3Dq) neuronal activity manipulation experiments, we used the second-generation agonist known as compound 21 (C21). This agonist was purchased in a water-soluble dihydrochloride form (Hello Bio). […]

[2] = test system: AD neurons expressing inhibitory DREADDs hM4Di-mCherry; assay: C21-induced inhibition of hM4Di-expressing AD neuronal firing, ex vivo slice recording; format: cell-based, mouse; settings: hM4Di-mCherry expressed in AD, 50 pA step current injection
RSC cFos ensembles = assay: cFos activation in RSC during CFC training in PTCHD1 KD mice; format: in vivo, mouse; settings: PTCHD1 KD mice with hM4Di in AD, low dose of C21 (0.6 mg kg^-1 IP)
AD→RSC circuit = assay: AMPA/NMDA ratio of the AD→RSC circuit after CFC training in PTCHD1 KD mice; format: in vivo, mouse; settings: PTCHD1 KD mice with hM4Di in AD, low dose of C21 (0.6 mg kg^-1 IP)
From the text: as §1, §2

## Cl.Cl.c1ccc2c(c1)N=C(N1CCNCC1)c1ccccc1N2 [C21]
PTCHD1 KD mice
  LTM recall (CFC): rescued
[1]
  excitability of AD neurons: returned to physiological levels
[2]
  AD neuronal firing: reversibly decreased AD neuronal firing
RSC cFos ensembles
  training-induced CFOS ensemble size in RSC: rescued
AD→RSC circuit
  training-induced strengthening of the AD→RSC circuit (AMPA/NMDA ratio): rescued
